One series has as its system PSMA positive lesions. The conditions noted are these: human, in vivo; cited from earlier work.
Series [1] concerns subcutaneous transplanted tumor, prostate cancer (22RV1). Nature of the series: Uptake of 177Lu labeled complex in subcutaneous transplanted tumor model mice with prostate cancer (tumor uptake and tissue distribution). Format: in vivo. To be noted: 24 h after intravenous tail injection of 5 MBq; 22RV1 tumor model mice; FIG. 1. As for the experimental part: The compound in Example 31 or another prior radioactive probe targeting PSMA was injected into subcutaneous transplanted tumor model mice with prostate cancer, and uptake results in tumors and distribution results in tissues were compared. A specific plan is as follows.
The subcutaneous transplanted tumor model mice with prostate cancer (22RV1) were randomly divided into 3 groups including an experimental group, a control group A and a control group B with 3 mice in each group.
[…] complex with purity of greater than 95% was prepared according to the method in Example 31. The complex is obtained by labeling compound 10 in Example 1 with ^177Lu, which was used as medicine B for the experimental group in the experiment. […]
5 MBq of medicine B, the medicine A and the medicine C were intravenously injected into tails of the mice in the experimental group, the control group A and the control group B, respectively. […] The obtained tissues were weighed, and measured by a y counter to obtain the radioactive counting of samples in the experimental group, the control group A and the control group B. Measured data were subtracted from the background, the decay time was corrected, and then average values were obtained. The data was expressed as the percentage of injected dose per gram tissue (% ID/g) of the dose uptake in tissues per gram in the injected dose.

With `O=C([O-])CN1CCN(CC(=O)[O-])CCN(CC(=O)NCC2CCC(C(=O)N[C@@H](Cc3ccc4ccccc4c3)C(=O)NCCCC[C@H](NC(=O)N[C@@H](CCC(=O)O)C(=O)O)C(=O)O)CC2)CCN(CC(=O)[O-])CC1.[177Lu+3]` (some centres unmarked) [^177Lu-PSMA 617], the “patients with no response to therapy” value with PSMA positive lesions is reported as “About 30%”. Moreover, the uptake in tumors in series [1] is 7.60±1.22 % ID/g.

The values above are taken from patent publication US11957767B2, “Compound targeting prostate specific membrane antigen, and preparation method and application thereof” (YANTAI LANNACHENG BIOTECHNOLOGY CO., LTD., priority 2021, dated 2024).
